Test results reported in US20080038809A1, “ISOLATED LECTIN POLYPEPTIDES CONSISTING OF TRUNCATED […] UDP-GalNAc:POLYPEPTIDE N- ACETYLGALACTOSAMINYLTRANSFERASES” (GLYCOZYM APS, priority 2002, published 2008).
Where two headings read alike, the source gives them in different places. One block for each molecule: values may come before it.

How the values were obtained:
[1] = test system: core 1 α2-3sialyltransferase ST3Gal-I; conditions: cited from earlier work
[2] = biological target: human GalNAc-T4 (UDP-GalNAc:polypeptide N-acetylgalactosaminyltransferase T4) isolated truncated lectin domain (T4ld), HIS-tagged, amino acid residues 405-578 of GALNT4 (Homo sapiens, UniProt Q8N4A0); assay: biochemical; type: binding; conditions: binding to GalNAc-MUC1 glycopeptide
human GalNAc-T4 (UDP-GalNAc:polypeptide N-acetylgalactosaminyltransferase T4) isolated truncated lectin domain (T4ld), HIS-tagged, amino acid residues 405-578 of GALNT4, sequence (Q8N4A0 405-578): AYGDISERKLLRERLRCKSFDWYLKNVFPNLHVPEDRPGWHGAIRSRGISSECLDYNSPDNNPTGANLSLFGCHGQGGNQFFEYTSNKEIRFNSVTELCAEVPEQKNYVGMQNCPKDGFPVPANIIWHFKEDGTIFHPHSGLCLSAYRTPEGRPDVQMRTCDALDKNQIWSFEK
Text: (§1) In order to minimize the size and functional complexity of GalNAc-transferase lectins to be used as probes for binding studies, we used multiple sequence alignment analysis to predict and design suitable expression constructs for isolated lectin domains (FIG. 2). In the present invention a direct binding assay was developed using isolated lectin domains of GalNAc-T4 and -T2 with minimal size (FIG. 5). […] The lectin Helix Pomatia (HP) was used as a control plant lectin with known binding specificity for […].
(§2) Direct binding ELISA assay was developed as follows: Polystyrene microtiter plates (Maxisorb, Nunc, Denmark) were coated with peptides or enzymatically glycosylated glycopeptides in PBS overnight at 4° C. Plates were washed and blocked with 0.1% Tween20 and 0.2% BSA in PBS for 1 h at room temperature, followed by incubation with biotinylated proteins in PBS with 0.05% Tween20 for 2 h at room temperature. After four washes with PBS, plates were incubated with 1:2,000 dilution streptavidin-HRP (Sigma) in PBS for 30 min at room temperature and washed four times with PBS. Development was performed with 0.5 mg/ml o-phenylenediamine and 0.02% H2O2 at room temperature for 15 min, and reaction stopped by adding 100 μl/well of 0.5 N H2SO4. Competitive inhibition assays were done at end-point titers of GalNAc-transferase proteins with one hour preincubations with inhibitor.
(§3) In binding studies using lectins without biotinylation antibodies to the HIS-tag and the T7-tag, or in some experiments antibodies raised to GalNAc-T2 and -T4 enzymes were used to detect binding.
(§4) Inhibition experiments were used to further define the binding specificity of GalNAc-T2 and -T4 secreted soluble enzymes as well as lectin domains compared to Helix Pomatia lectin (Table IV).
(§5) The ligand target used in this Example is a GalNAc-MUC1 glycopeptide produced enzymatically from synthetic peptides.

GalNAc-T2 lectin domain = biological target: T1, GalNAc-T2 lectin domain (Homo sapiens, UniProt Q10471); assay: Inhibition of GalNAc-T2 lectin domain (T2ld) binding to GalNAc-MUC1 glycopeptide, ELISA
T1 construct: comprises amino acid residues 408-571 of GALNT2; made in house; host or cells: baculovirus (pAcGP67-A), virus made in Sf9, protein produced in High Five insect cells
T1 sequence (Q10471 408-571): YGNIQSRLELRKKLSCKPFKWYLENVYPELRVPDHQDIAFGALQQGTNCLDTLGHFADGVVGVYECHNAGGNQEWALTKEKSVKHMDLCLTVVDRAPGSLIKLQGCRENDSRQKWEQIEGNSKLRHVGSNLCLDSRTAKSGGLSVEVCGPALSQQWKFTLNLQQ
Procedure: as §2, §3, §4

[3] = biological target: T2, secreted soluble GalNAc-T2 (Homo sapiens, UniProt Q10471); assay: Inhibition of secreted soluble GalNAc-T2 (sT2) binding to GalNAc-MUC1 glycopeptide, ELISA
T2 construct: 6xHis (N); thrombin cleavage site (N); T7 antibody site (N); made in house; host or cells: baculovirus (pAcGP67A), High Five insect cells
T2 sequence (Q10471 52-571 limits assumed): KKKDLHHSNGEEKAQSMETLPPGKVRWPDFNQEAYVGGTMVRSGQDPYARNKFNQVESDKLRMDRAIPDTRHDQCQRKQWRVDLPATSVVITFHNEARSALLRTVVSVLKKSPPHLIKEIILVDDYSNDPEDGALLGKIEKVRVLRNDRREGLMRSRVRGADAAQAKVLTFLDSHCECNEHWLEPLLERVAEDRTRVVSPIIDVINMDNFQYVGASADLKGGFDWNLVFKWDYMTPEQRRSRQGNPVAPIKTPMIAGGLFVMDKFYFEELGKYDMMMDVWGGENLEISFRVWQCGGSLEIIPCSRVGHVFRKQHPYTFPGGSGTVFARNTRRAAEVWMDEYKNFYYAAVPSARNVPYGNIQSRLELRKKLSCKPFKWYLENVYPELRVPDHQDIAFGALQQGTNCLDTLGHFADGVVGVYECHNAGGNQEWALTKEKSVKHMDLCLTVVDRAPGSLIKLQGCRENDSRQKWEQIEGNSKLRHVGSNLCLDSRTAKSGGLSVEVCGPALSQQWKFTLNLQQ
Procedure: as §2, §4

[4] = biological target: T3, secreted soluble GalNAc-T4 (Homo sapiens, UniProt Q8N4A0); assay: Inhibition of secreted soluble GalNAc-T4 (sT4) binding to GalNAc-MUC1 glycopeptide, ELISA
T3 construct: 6xHis (N); thrombin cleavage site (N); T7 antibody site (N); made in house; host or cells: baculovirus (pAcGP67A), High Five insect cells
T3 sequence (Q8N4A0 36-578 limits assumed): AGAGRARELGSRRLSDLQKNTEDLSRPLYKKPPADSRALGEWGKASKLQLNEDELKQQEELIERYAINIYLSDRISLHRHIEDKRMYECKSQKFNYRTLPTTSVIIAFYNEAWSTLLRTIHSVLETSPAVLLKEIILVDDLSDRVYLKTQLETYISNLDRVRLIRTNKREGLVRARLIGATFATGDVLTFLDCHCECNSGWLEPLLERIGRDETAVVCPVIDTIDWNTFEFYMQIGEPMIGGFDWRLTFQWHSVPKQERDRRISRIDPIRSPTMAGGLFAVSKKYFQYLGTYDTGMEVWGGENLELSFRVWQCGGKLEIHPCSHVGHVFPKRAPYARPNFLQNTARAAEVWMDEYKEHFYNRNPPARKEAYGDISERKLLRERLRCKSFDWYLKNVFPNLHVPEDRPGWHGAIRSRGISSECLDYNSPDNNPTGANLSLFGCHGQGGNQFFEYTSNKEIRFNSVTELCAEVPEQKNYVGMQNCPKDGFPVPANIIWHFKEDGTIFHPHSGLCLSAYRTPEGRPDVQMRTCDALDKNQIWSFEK
Procedure: as §2, §4

[5] = biological target: Helix Pomatia lectin (HPA) (Helix pomatia, UniProt Q2F1K8); assay: Inhibition of Helix Pomatia lectin (HPA) binding, ELISA
Helix Pomatia lectin (HPA), sequence (Q2F1K8 entry or part of it): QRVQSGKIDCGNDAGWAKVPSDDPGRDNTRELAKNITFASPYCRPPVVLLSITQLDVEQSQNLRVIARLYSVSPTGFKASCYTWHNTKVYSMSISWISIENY
Procedure: (§6) Glycopeptides were purified by C-18 reverse phase HPLC. Peptides were custom synthesized by Neosystems (Strasbourg). Biotinylated Helix Pomatia lectin (HPA) was from KemEnTec (Denmark). Anti-MUC1 HMFG2 monoclonal antibody was a generous gift from Joyce Taylor-Papadimitriou.
as §2, §4

[6] = test system: GalNAc-T2 and -T4 secreted soluble enzymes as well as lectin domains; assay: Inhibition of GalNAc-transferase lectin binding to GalNAc-glycopeptides, statements on GalNAc-T2 and -T4 together; set-up: species or system human; conditions: enzymes and isolated lectins
Procedure: as §2
Lectins and antibodies to carbohydrates usually recognize the anomeric configuration of the sugar structures they bind.
as §4

GalNAc-T4 lectin domain = biological target: T4, GalNAc-T4 lectin domain (Homo sapiens, UniProt Q8N4A0); assay: Inhibition of GalNAc-T4 lectin domain (T4ld) binding to GalNAc-MUC1 glycopeptide, ELISA
T4 construct: comprises amino acid residues 405-578 of GALNT4; made in house; host or cells: baculovirus (pAcGP67-A), virus made in Sf9, protein produced in High Five insect cells
T4 sequence (Q8N4A0 405-578): as the sequence (Q8N4A0 405-578) above
Procedure: as §2, §3, §4

[7] = test system: T, Tn and sialyl-Tn in HT-29 MTX cells; assay: O-linked mucin carbohydrate structures T, Tn and sialyl-Tn in HT-29 MTX cells by immuno-histochemistry; type: cell-based, human; conditions: 5 mM, compared to controls
Text: In order to evaluate GalNAcβ-benzyl as an inhibitor of mucin glycosylation and secretion we used the cultured colon carcinoma cells of mucin secreting phenotypes: HT-29 metotrexate (MTX) cells selected from the HT-29 cell line by culture in the presence of MTX (kind gift from G. Huet, France). The HT-29 MTX cells were selected to yield a goblet cell like phenotype with constitutive production of MUC5AC. In order to ensure proper goblet cell differentiation the HT29MTX cell line were continuously grown up to 21 days in the presence of 5 mM GalNAcα-benzyl, 5 mM GalNAcβ-benzyl, 5 mM GlcNAcα-benzyl and without inhibitor using culture conditions as described in Hennebicq-Reig et al. (Permanent exposure of mucin-secreting HT-29 cells to benzyl-N-acetyl-alpha-D-galactosaminide induces abnormal O-glycosylation of mucins and inhibits constitutive and stimulated MUC5AC secretion. Biochem J. 1998; 334:283-95). […] Furthermore the viscosity of the media from cells with and without inhibitor was evaluated using viscosity micro-measurement.

[8] = biological target: human GalNAc-T2 (UDP-GalNAc:polypeptide N-acetylgalactosaminyltransferase T2), secreted soluble enzyme (sT2), wild type (Homo sapiens, UniProt Q10471); assay: biochemical; conditions: read-out: Concentration required for 50% inhibition (IC50), binding to GalNAc-MUC1 glycopeptide
human GalNAc-T2 (UDP-GalNAc:polypeptide N-acetylgalactosaminyltransferase T2), secreted soluble enzyme (sT2), wild type, sequence (Q10471 52-571 limits assumed): as the sequence (Q10471 52-571 limits assumed) above
Procedure: (§7) The pH of 1 ml purified protein (0.3 mg/ml) in PBS was adjusted to pH 9 with 1 M NaOH and 40 μl N-hydroxy-succinimidobiotin (Sigma) dissolved in DMF (10 mg/ml) was added. The solution was mixed end-over-end for 2 hours at room temperature, and dialyzed three times against PBS and an equal volume of glycerol was added. The biotinylated proteins were stored at −20° C. in 50% glycerol until use.
as §6
as §2, with “Development was performed with 0.5 mg/ml o-phenylenediamine and 0.02% H2O2 at room temperature for 15 min, and reaction stopped by adding 100 μl/well of 0.5 N H2SO4. Competitive inhibition assays were done at end-point titers of GalNAc-transferase proteins with one hour preincubations with inhibitor.” left out

[9] = biological target: human GalNAc-T4 (UDP-GalNAc:polypeptide N-acetylgalactosaminyltransferase T4) isolated truncated lectin domain (T4ld), HIS-tagged, amino acid residues 405-578 o (Homo sapiens, UniProt Q8N4A0); assay: biochemical; type: binding; conditions: read-out: Concentration required for 50% inhibition (IC50), binding to GalNAc-MUC1 glycopeptide
human GalNAc-T4 (UDP-GalNAc:polypeptide N-acetylgalactosaminyltransferase T4) isolated truncated lectin domain (T4ld), HIS-tagged, amino acid residues 405-578 o, sequence (Q8N4A0 405-578): as the sequence (Q8N4A0 405-578) above
Text: as §1, §2, §3, §4, §5

[10] = biological target: human GalNAc-T4 (UDP-GalNAc:polypeptide N-acetylgalactosaminyltransferase T4), secreted soluble enzyme (sT4), wild type (Homo sapiens, UniProt Q8N4A0); conditions: read-out: Concentration required for 50% inhibition (IC50), binding to GalNAc-MUC1 glycopeptide
human GalNAc-T4 (UDP-GalNAc:polypeptide N-acetylgalactosaminyltransferase T4), secreted soluble enzyme (sT4), wild type, sequence (Q8N4A0 36-578 limits assumed): as the sequence (Q8N4A0 36-578 limits assumed) above
Procedure: as §7, §6
as §2, with “Development was performed with 0.5 mg/ml o-phenylenediamine and 0.02% H2O2 at room temperature for 15 min, and reaction stopped by adding 100 μl/well of 0.5 N H2SO4. Competitive inhibition assays were done at end-point titers of GalNAc-transferase proteins with one hour preincubations with inhibitor.” left out

SMILES: CC(=O)N[C@H]1[C@@H](OCc2ccccc2)O[C@H](CO)[C@H](O)[C@@H]1O[C@@H]1O[C@H](CO)[C@H](O)[C@H](O)[C@H]1O [Galβ1-3GalNAcα-benzyl]
- substrate for ST3Gal-I [1]: efficient substrate

SMILES: CC(=O)N[C@H]1[C@H](Oc2ccc([N+](=O)[O-])cc2)O[C@H](CO)[C@H](O)[C@@H]1O [pNPβGalNAc]
- IC50 [2]: 8 mM
- IC50 (GalNAc-T2 lectin domain; read-out: T2ld: Concentration required for 50% inhibition (IC50)): > 10 mM
- IC50 ([3]; read-out: sT2: Concentration required for 50% inhibition (IC50)): > 10 mM

SMILES: CC(=O)N[C@H]1[C@H](OCc2ccccc2)O[C@H](CO)[C@@H](O)[C@@H]1O [BzlβGlcNAc]
- O-linked mucin carbohydrate structures T, Tn and sialyl-Tn [7]: upregulated

Next, values leading:

- IC50 [4]: 30 mM
- inhibition of Helix Pomatia binding, in words [5]: strong inhibitor
- inhibition of GalNAc-T2 and -T4 lectin mediated binding, in words [6]: not a significant inhibitor
- IC50 (GalNAc-T2 lectin domain): > 100 mM
- IC50 [3]: 65 mM
- IC50 (GalNAc-T4 lectin domain): 50 mM
SMILES: CC(=O)N[C@H]1[C@@H](OP(=O)(O)OP(=O)(O)OC[C@H]2O[C@@H](n3ccc(=O)[nH]c3=O)[C@H](O)[C@@H]2O)O[C@H](CO)[C@H](O)[C@@H]1O [UDPαGalNAc, UDP-N-acetylgalactosamine]

- IC50 [8]: 5 mM
- IC50 [9]: 5 mM
- IC50 [10]: 1 mM
SMILES: CC(=O)N[C@H]1[C@@H](Oc2ccccc2)O[C@H](CO)[C@H](O)[C@@H]1O [PhlαGalNAc]
